Holding throughout (type): physicochemical
The nature of data set [1]: Example 26: release of geraniol from 2′,6′-diacetyl-geranyl-O-β-D-3′-ketoglucopyranoside, 0.1 M deuterated phosphate buffer, 50% D6-DMSO, 32° C. The protocol: In this example the rate of release of geraniol from (((2R,3R,5S)-5-acetoxy-6-(((E)-3,7-dimethylocta-2,6-dien-1-yl)oxy)-3-hydroxy-4-oxotetrahydro-2H-pyran-2-yl)methyl acetate (2′,6′-Diacetyl-geranyl-O-β-D-3′-ketoglucopyranoside) in 0.1 M deuterated phosphate buffer solutions of differing pH containing 50% D6-DMSO was determined.
(§1) 0.1 M of pH 5.8 and 7.4 stock buffered solutions of sodium dihydrogen phosphate and disodium hydrogen phosphate were prepared in deuterated water (D2O).
A stock solution of 15 mg of 2′,6′-diacetyl-geranyl-O-β-D-3′-ketoglucopyranoside in 1.5 mL of D6-DMSO were prepared.
To two parallel reaction vials, where indicated in the reaction table below, was added 0.35 mL of the glycoside substrate solutions in D6-DMSO and 0.35 mL of low or high pH 0.1M phosphate buffer in D2O and the mixtures incubated by shaking at 32° C. After times indicated in table below, the mixtures where analysed by ^1H-NMR in a 400 MHz instrument.

Data set [2] is described as follows: Example 27: release of phenol from 2′,6′-diacetyl-phenyl-O-β-D-3′-ketoglucopyranoside, 0.1 M deuterated phosphate buffer or D2O, 33% D6-DMSO, 32° C. The protocol:
as §1
A stock solution of 25 mg of 2′,6′-diacetyl-phenyl-O-β-D-3′-ketoglucopyranoside in 1.0 mL of D6-DMSO were prepared.
To three parallel reaction vials, where indicated in the reaction table below, was added 0.20 mL of the glycoside substrate solutions in D6-DMSO and 0.40 mL of low or high pH 0.1M phosphate buffer in D2O and the mixtures incubated by shaking at 32° C. After times indicated in table below, the mixtures where analysed by ^1H-NMR in a 400 MHz instrument.

Data set [3] is described as follows: Example 14: release of eugenol from eugenyl-O-β-D-3′-ketoglucopyranoside, 0.1 M deuterated phosphate buffer or D2O, 33% D6-DMSO, 32° C. As for the experimental part:
In this example the rate of release of eugenol from (2S,3S,5R,6R)-2-(4-allyl-2-methoxyphenoxy)-3,5-dihydroxy-6-(hydroxymethyl)tetrahydro-4H-pyran-4-one (eugenyl-O-β-D-3′-ketoglucopyranoside) in 0.1 M deuterated phosphate buffer solutions of differing pH containing 33% D6-DMSO was determined.
as §1
A stock solution of 15 mg of eugenyl-O-β-D-3′-ketoglucopyranoside in 1.0 mL of D6-DMSO were prepared.
To three parallel reaction vials, where indicated in the reaction table below, was added 0.20 mL of the glycoside substrate solutions in D6-DMSO and 0.40 mL of low or high pH 0.1M phosphate buffer in D2O or D2O and the mixtures incubated by shaking at 32° C. After times indicated in table below, the mixtures where analysed by ^1H-NMR in a 400 MHz instrument.

A short description of data set [4]: Example 19: release of cis-PMD from cis-PMD-O-β-D-3′-ketoglucopyranoside, 0.1 M deuterated phosphate buffer, 33% D6-DMSO, 32° C. As for the experimental part:
In this example the rate of release of cis-PMD from (2R,3R,5S)-3,5-dihydroxy-2-(hydroxymethyl)-6-((5-(2-hydroxypropan-2-yl)-2-methylcyclohexyl)oxy)tetrahydro-4H-pyran-4-one (cis-PMD-O-β-D-3′-ketoglucopyranoside) in 0.1 M deuterated phosphate buffer solutions of differing pH containing 33% D6-DMSO was determined. 0.1 M of pH 5.8 and 7.4 stock buffered solutions of sodium dihydrogen phosphate and disodium hydrogen phosphate were prepared in deuterated water (D2O).
A stock solution of 10 mg of cis-PMD-O-β-D-3′ketoglucopyranoside in 0.5 mL of D6-DMSO were prepared.
To two parallel reaction vials, where indicated in the reaction table below, was added 0.20 mL of the glycoside substrate solutions in D6-DMSO and […] of low or high pH 0.1M phosphate buffer in D2O and the mixtures incubated by shaking at 32° C. After times indicated in table below, the mixtures where analysed by ^1H-NMR in a 400 MHz instrument.

A short description of data set [5]: Example 18: release of picaridin from 250 μM picaridin-O-β-D-3′-ketoglucopyranoside in different pH aqueous buffers, 32° C., UPLC. The protocol: In this example the rate of release of picaridin from a solution of sec-butyl 2-(2-(((2R,3S,5R,6R)-3,5-dihydroxy-6-(hydroxymethyl)-4-oxotetrahydro-2H-pyran-2-yl)oxy)ethyl)piperidine-1-carboxylate (picaridin-O-β-D-3′-ketoglucopyranoside) different pH aqueous buffers was determined.
Parallel mixtures containing 250 μM picaridin-O-β-D-3′-ketoglucopyranoside in 0.05M K2HPO4 0.95M/KH2PO4, pH=8.5 buffer (Reaction 1), 0.17M Na2HPO4/0.02M citric acid, pH=7 buffer (Reaction 2), 0.12M Na2HPO4/0.04M citric acid buffer, pH=5.8 (Reaction 3) and 0.04M sodium citrate/0.06M citric acid buffer, pH=4 (Reaction 4) were incubated at 32° C. Aliquots of 10 μl were periodically taken, diluted with MeCN (90 μl) and analysed by UPLC using the following instrument and conditions: • Stationary phase: Acquity UPLC® BEH C18 1.7 μm (2.1 mm×50 mm) (Waters) • Mobile phase: A: water+0.1% formic acid; B: acetonitrile+0.1% formic acid • The chromatographic equipment employed was an UPLC QSM Waters Acquity. • Gradient conditions:
• Flow Rate(mL/min) 0.6 • Source Temperature (° C.) 150 • Desolvation Temperature (° C.) 500 • Cone Gas Flow (L/Hr) 50 • Desolvation Gas Flow (L/Hr) 900 • Target Column Temperature 35° C.
Target Sample Temperature 8.0° C.

Turning to `CC(=O)OC[C@H]1O[C@@H](OC/C=C(\C)CCC=C(C)C)[C@H](OC(C)=O)C(=O)[C@@H]1O` [((2R,3R,5S,6R)-5-acetoxy-6-(((E)-3,7-dimethylocta-2,6-dien-1-yl)oxy)-3-hydroxy-4-oxotetrahydro-2H-pyran-2-yl)methyl acetate], in data set [1] (32° C.), the “geraniol release (in words)” value is “generates geraniol at both pH 5.8 and pH 7.4”. The “% Conversion by 1H-NMR” value was 0% in data set [1] (pH 5.8, 0 h); 10% in data set [1] (pH 5.8, 5 h); 20% in data set [1] (pH 5.8, 24 h); 39% in data set [1] (pH 5.8, 48 h); 43% in data set [1] (pH 5.8, 120 h); 92% in data set [1] (pH 5.8, 480 h). Moreover, the “% Conversion by 1H-NMR” value in data set [1] (pH 5.8, column head 19 (between 120 h and 480 h)) came to 62%; in data set [1] (pH 7.4, 0 h), 0%; in data set [1] (pH 7.4, 5 h), 6%; in data set [1] (pH 7.4, 24 h), 25%; in data set [1] (pH 7.4, 48 h), 33%; in data set [1] (pH 7.4, 120 h), 37%. Further, the “% Conversion by 1H-NMR” value is listed as 85% in data set [1] (pH 7.4, 480 h); 55% in data set [1] (pH 7.4, column head 19 (between 120 h and 480 h)).
Take `CC(=O)OC[C@H]1O[C@@H](Oc2ccccc2)[C@H](OC(C)=O)C(=O)[C@@H]1O` [((2R,3R,5S,6S)-5-acetoxy-3-hydroxy-4-oxo-6-phenoxytetrahydro-2H-pyran-2-yl)methyl acetate]: in data set [2] (32° C.), the “phenol release (in words)” value was “generates phenol at both pH 5.8 and pH 7.4 and in D2O”. Besides, the “% Conversion by 1H-NMR” value was found to be 0% in data set [2] (D2O, 0 h); 0% in data set [2] (D2O, 4 h); 10% in data set [2] (D2O, 22 h); 21% in data set [2] (D2O, 70 h (printed under the 52 h column)); 14% in data set [2] (pH 5.8, 0 h); 18% in data set [2] (pH 5.8, 4 h). The “% Conversion by 1H-NMR” value turned out to be 24% in data set [2] (pH 5.8, 22 h); 26% in data set [2] (pH 5.8, 52 h); 36% in data set [2] (pH 5.8, 120 h); 54% in data set [2] (pH 5.8, 432 h); 19% in data set [2] (pH 7.4, 0 h); 43% in data set [2] (pH 7.4, 4 h). The “% Conversion by 1H-NMR” value is recorded as 74% in data set [2] (pH 7.4, 22 h); 81% in data set [2] (pH 7.4, 52 h); 93% in data set [2] (pH 7.4, 120 h); 100% in data set [2] (pH 7.4, 432 h).
`C=CCc1ccc(O[C@@H]2O[C@H](CO)[C@@H](O)C(=O)[C@H]2O)c(OC)c1` [eugenyl-O-β-D-3′-ketoglucopyranoside, (2S,3S,5R,6R)-2-(4-allyl-2-methoxyphenoxy)-3,5-dihydroxy-6-(hydroxymethyl)tetrahydro-4H-pyran-4-one]: the “pH dependence of eugenol release (in words)” value in data set [3] (32° C.) was “only slowly degraded at pH 5.8, but releases eugenol at a significantly higher rate at pH 7.4”. Further, the “% Conversion by 1H-NMR” value in data set [3] (D2O, 1 h) is 3%; in data set [3] (D2O, 5 h), 3%; in data set [3] (D2O, 23 h), 5%; in data set [3] (D2O, 69 h) it was 10%; in data set [3] (pH 5.8, 1 h), 3%; in data set [3] (pH 5.8, 5 h), 3%. Further, the “% Conversion by 1H-NMR” value in data set [3] (pH 5.8, 23 h) stood at 5%; in data set [3] (pH 5.8, 69 h) it was 5%; in data set [3] (pH 7.4, 1 h) it was 3%; in data set [3] (pH 7.4, 5 h) it was 8%; in data set [3] (pH 7.4, 23 h) it was 60%; in data set [3] (pH 7.4, 69 h), 80%.
Consider `C[C@@H]1CC[C@@H](C(C)(C)O)C(O[C@@H]2O[C@H](CO)[C@@H](O)C(=O)[C@H]2O)C1` (mixture of isomers) [cis-PMD-O-β-D-3′-ketoglucopyranoside, (2R,3R,5S,6R)-3,5-dihydroxy-2-(hydroxymethyl)-6-(((1S,2R,5R)-2-(2-hydroxypropan-2-yl)-5-methylcyclohexyl)-oxy)tetrahydro-4H-pyran-4-one], for which the “pH dependence of cis-PMD release (in words)” value in data set [4] (32° C.) is “only slowly degraded at pH 5.8, but releases cis-PMD at a significantly higher rate at pH 7.4”. Besides, the “% Conversion by 1H-NMR” value is 0% in data set [4] (pH 5.8, 0 h); 0% in data set [4] (pH 5.8, 3 h); 0% in data set [4] (pH 5.8, 20 h); under 5% in data set [4] (pH 5.8, 95 h); 0% in data set [4] (pH 7.4, 0 h); 12% in data set [4] (pH 7.4, 3 h). Further, the “% Conversion by 1H-NMR” value in data set [4] (pH 7.4, 20 h) worked out at 39%; in data set [4] (pH 7.4, 95 h) it was 45%; in data set [4] (pH 7.4, 167 h) it was 85%.
As to `CCC(C)OC(=O)N1CCCCC1CCO[C@@H]1O[C@H](CO)[C@@H](O)C(=O)[C@H]1O` (stereo partly drawn) [picaridin-O-β-D-3′-ketoglucopyranoside, sec-butyl 2-(2-(((2R,3S,5R,6R)-3,5-dihydroxy-6-(hydroxymethyl)-4-oxotetrahydro-2H-pyran-2-yl)oxy)ethyl) piperidine-1-carboxylate], the “pH dependence of degradation (in words)” value in data set [5] (32° C.) was “degraded at increasing rate between pH 4 and pH 8.5”. Besides, the Picaridin released is 1 µM in data set [5] (Reaction 1, pH=8.5 buffer, 0 h); 2 µM in data set [5] (Reaction 1, pH=8.5 buffer, 7 h); 7 µM in data set [5] (Reaction 1, pH=8.5 buffer, 24 h); 15 µM in data set [5] (Reaction 1, pH=8.5 buffer, 50 h); 1 µM in data set [5] (Reaction 2, pH=7 buffer, 0 h); 1 µM in data set [5] (Reaction 2, pH=7 buffer, 7 h). Besides, the Picaridin released in data set [5] (Reaction 2, pH=7 buffer, 24 h) is 2 µM; in data set [5] (Reaction 2, pH=7 buffer, 50 h) it was 4 µM; in data set [5] (Reaction 3, pH=5.8 buffer, 0 h) it was 0.25 µM; in data set [5] (Reaction 3, pH=5.8 buffer, 7 h), 0.75 µM; in data set [5] (Reaction 3, pH=5.8 buffer, 24 h), 1 µM; in data set [5] (Reaction 3, pH=5.8 buffer, 50 h) it was 2 µM. Further, the Picaridin released in data set [5] (Reaction 4, pH=4 buffer, 0 h) worked out at 0.25 µM; in data set [5] (Reaction 4, pH=4 buffer, 7 h), 0.75 µM; in data set [5] (Reaction 4, pH=4 buffer, 24 h) it was 1 µM; in data set [5] (Reaction 4, pH=4 buffer, 50 h), 1.75 µM.

These data come from patent publication US12509482B2, “3′-ketoglycoside compound for the slow release of a volatile alcohol” (GLYCOSCIENCE, S.L., priority 2020, dated 2025).
